Results from publication PMC3427316 (PLoS ONE, 2012).

Key:
[1] = test system: H1N1pdm09 virus resistant to oseltamivir; conditions: zanamivir inhaled (n = 8), intravenous (n = 5) or nebulised (n = 1); cited from earlier work
[2] = test system: NA with I223R mutation of H1N1pdm09 virus; type: biochemical, influenza A(H1N1)pdm09 virus

SMILES	patients with reduced viral shedding or recovery [1]	reduction in susceptibility associated with the I223R mutation [2] [fold]
CC(=O)N[C@H]1[C@H]([C@H](O)[C@H](O)CO)OC(C(=O)O)=C[C@@H]1N=C(N)N [ZAN, zanamivir]	12/14	
CCC(CC)O[C@@H]1C=C(C(=O)O)C[C@H](N)[C@H]1NC(C)=O [OC, oseltamivir carboxylate]		9 to 18
